The source of these data is patent US11274100B2, “EP300/CREBBP inhibitor” (Daiichi Sankyo Company, Limited, priority 2017, dated 2022).

A word on the IC50: it is the concentration at which inhibition is half-maximal. Usually GI50 stands for the concentration that inhibits growth by half. A higher GI50 goes with less potent growth inhibition.

For one assay, the target named is EP300 (Homo sapiens, UniProt Q09472). Nature of the assay: Histone acetyltransferase inhibitory activity against EP300 (Test Example 1). In kind it is biochemical. Particulars: 50 ng/mL EP300, 2 μM Acetyl-CoA, 100 nM Histone H4(1-25)-GSGSK (Biotin), 28° C. for 1 hour. The protocol:
(§1) [Test Example 1] Evaluation of Histone
(§2) Acetyltransferase Inhibitory Activity against EP300 and CREBBP
(§3) 10 μL each of reaction solutions each containing a different concentration of the compound of each of Examples 1 to 108b (50 mM Tris-HCl (pH8.0), 0.1 mM EDTA, 1 mM dithiothreitol, 0.01% Tween-20, 0.01% Bovine serum albumin, 330 nM trichostatin A, 2 μM Acetyl-CoA (Sigma-Aldrich, #A2056), 100 nM Histone H4(1-25)-GSGSK (Biotin) (Anaspec, #65242-1), 1% dimethyl sulfoxide, 10 to 0.0006 μM of each compound, 50 ng/mL EP300 or 125 ng/mL CREBBP) was added to respective wells of a 384-well plate, and cultured at 28° C. for 1 hour. Thereafter, 5 μL of 30 μM Lys-CoA (Daiichi Sankyo Co., Ltd.) dissolved in LANCE detection buffer (Perkin Elmer Co., Ltd., #CR97-100) was added to each well. Furthermore, 5 μL of LANCE detection buffer containing 2 nM Eu-anti pan-Ac (Perkin Elmer Co., Ltd., #TRF0412) and 50 nM Sta-Ulight (Perkin Elmer Co., Ltd., #TRF0102) was added to each well, and the resultant was cultured at room temperature overnight. EnVision (Perkin Elmer Co., Ltd., Model 2104-0020) was used to measure ULight signals. […] EP300 and CREBBP were produced and purified by Daiichi Sankyo RD Novare Co., Ltd.

Another assay relates to LK2 cells. Description: Cell growth inhibitory activity, LK2 cells (Test Example 3). In kind it is cell-based. Particulars: Homo sapiens, LK-2, 72 h, cultured for 3 days, CellTiter-Glo. As for the experimental part: (§4) [Test Example 3] Evaluation of Cell Growth Inhibitory Activity
(§5) As a culture medium for each cell, a 10% FBS supplemented RPMI 1640 medium (for LK2 cells and TE-8 cells derived from human esophageal cancer) was used. LK2 cells were purchased from Human Science Research Resources Bank, and TE-8 cells were purchased from Riken Cell Bank. The compound of each of Examples 1 to 108b was prepared by dilution with Freedom EVO 150 (Tecan Trading AG) (4-fold diluted, 10 stages, 10 mM to 38 nM). The resultant was added to respective wells of a 384-well plate in an amount of 40 nL/well using Echo 555 (Labcyte Inc.). The LK2 or TE-8 cells were seeded in the plate at 400 cells/40 μL/well (day 0), and were cultured for 3 days. On the day of addition of the compound (day 0) and 3 days after the addition of the compound (day 3), an ATP measurement reagent of CellTiter-Glo (registered trademark) 2.0 Assay (Promega Corporation, #G9242) was added to each well in an amount of 10 μL/well, and the amount of luminescence of each well was measured using EnVision. Based on the amount of luminescence (C0) on the day of the addition of the compound, and the amounts of luminescence of a compound non-addition group (C3) and a compound addition group (T3) obtained after the 3-day culture of the compound, a cell survival rate was calculated in accordance with the following expression: Cell survival rate (%)=(T3−C0)/(C3−C0)×100
(§6) A concentration (GI50 value) of each compound at which the growth of the TE-8 or LK-2 cells was inhibited by 50% was calculated by semilogarithmically plotting the cell survival rate at each concentration and the compound concentration.
On the technique in general: Cellular ATP, detected with luciferase, serves as a proxy for viable cell number.

In the next assay the test system is TE-8 cells. Nature of the assay: Cell growth inhibitory activity, TE-8 cells (Test Example 3). In kind it is cell-based. Particulars: Homo sapiens, 72 h, cultured for 3 days, CellTiter-Glo. As for the experimental part: as §4, §5, §6
The target in a further assay is CREBBP (Homo sapiens, UniProt Q92793). Nature of the assay: Histone acetyltransferase inhibitory activity against CREBBP (Test Example 1). In kind it is biochemical. Particulars: 125 ng/mL CREBBP, 2 μM Acetyl-CoA, 100 nM Histone H4(1-25)-GSGSK (Biotin), 28° C. for 1 hour. The protocol:
as §1, §2, §3

A further assay relates to H3K27Ac. Description: Intracellular H3K27Ac inhibitory activity in LK2 cells (Test Example 2). In kind it is cell-based. The conditions noted are these: Homo sapiens, LK-2, cultured with compound for 3 hours, read-out: Test Example 2 H3K27Ac Inhibition (LK2) IC50. The protocol: [Test Example 2] Evaluation of Intracellular H3K27Ac Inhibitory Activity
LK2 cells derived from human squamous cell lung cancer were seeded in a 96 well plate at 40000 cells/100 μL/well, and were cultured overnight at 37° C. in 5% CO2. The LK2 cells were purchased from Human Science Research Resources Bank. […] The supernatant was discarded, 4% paraformaldehyde was added thereto at 100 μL/well, and the resultant was allowed to stand still at room temperature for 15 minutes. The 4% paraformaldehyde was discarded, and the resultant was washed with PBS-T. A quenching buffer (PBS-T containing 1% H2O2) was added thereto at of 100 μL/well, and the resultant was allowed to stand still at room temperature for 10 minutes. The resultant was washed with PBS-T, a blocking buffer (StartingBlocK T20 (TBS) Blocking Buffer (Thermo […], #37543)) was added thereto at 200 μL/well, and the resultant was allowed to stand still at room temperature for 1 hour. The supernatant was discarded, Acetyl-Histone H3 (Lys27) (D5E4) XP (registered trademark) Rabbit mAb (cell Signaling, #8173) diluted with a blocking buffer was added thereto at 50 μL/well, and the resultant was allowed to stand still at 4° C. overnight. The resultant was washed with PBS-T, Anti-Rabbit IgG-HRP (Cell Signaling, #7074S) diluted with a blocking buffer was added thereto at 50 μL/well, and the resultant was cultured at room temperature for 1 hour. The resultant was washed with PBS-T, SuperSignal (registered trademark) ELISA Pico Chemiluminescent Substrate (Thermo […], #37069) was added thereto at 50 μL/well, and a signal was measured using EnVision.

SMILES strings stand for the structures.

CREBBP, sequence (Q92793 whole entry): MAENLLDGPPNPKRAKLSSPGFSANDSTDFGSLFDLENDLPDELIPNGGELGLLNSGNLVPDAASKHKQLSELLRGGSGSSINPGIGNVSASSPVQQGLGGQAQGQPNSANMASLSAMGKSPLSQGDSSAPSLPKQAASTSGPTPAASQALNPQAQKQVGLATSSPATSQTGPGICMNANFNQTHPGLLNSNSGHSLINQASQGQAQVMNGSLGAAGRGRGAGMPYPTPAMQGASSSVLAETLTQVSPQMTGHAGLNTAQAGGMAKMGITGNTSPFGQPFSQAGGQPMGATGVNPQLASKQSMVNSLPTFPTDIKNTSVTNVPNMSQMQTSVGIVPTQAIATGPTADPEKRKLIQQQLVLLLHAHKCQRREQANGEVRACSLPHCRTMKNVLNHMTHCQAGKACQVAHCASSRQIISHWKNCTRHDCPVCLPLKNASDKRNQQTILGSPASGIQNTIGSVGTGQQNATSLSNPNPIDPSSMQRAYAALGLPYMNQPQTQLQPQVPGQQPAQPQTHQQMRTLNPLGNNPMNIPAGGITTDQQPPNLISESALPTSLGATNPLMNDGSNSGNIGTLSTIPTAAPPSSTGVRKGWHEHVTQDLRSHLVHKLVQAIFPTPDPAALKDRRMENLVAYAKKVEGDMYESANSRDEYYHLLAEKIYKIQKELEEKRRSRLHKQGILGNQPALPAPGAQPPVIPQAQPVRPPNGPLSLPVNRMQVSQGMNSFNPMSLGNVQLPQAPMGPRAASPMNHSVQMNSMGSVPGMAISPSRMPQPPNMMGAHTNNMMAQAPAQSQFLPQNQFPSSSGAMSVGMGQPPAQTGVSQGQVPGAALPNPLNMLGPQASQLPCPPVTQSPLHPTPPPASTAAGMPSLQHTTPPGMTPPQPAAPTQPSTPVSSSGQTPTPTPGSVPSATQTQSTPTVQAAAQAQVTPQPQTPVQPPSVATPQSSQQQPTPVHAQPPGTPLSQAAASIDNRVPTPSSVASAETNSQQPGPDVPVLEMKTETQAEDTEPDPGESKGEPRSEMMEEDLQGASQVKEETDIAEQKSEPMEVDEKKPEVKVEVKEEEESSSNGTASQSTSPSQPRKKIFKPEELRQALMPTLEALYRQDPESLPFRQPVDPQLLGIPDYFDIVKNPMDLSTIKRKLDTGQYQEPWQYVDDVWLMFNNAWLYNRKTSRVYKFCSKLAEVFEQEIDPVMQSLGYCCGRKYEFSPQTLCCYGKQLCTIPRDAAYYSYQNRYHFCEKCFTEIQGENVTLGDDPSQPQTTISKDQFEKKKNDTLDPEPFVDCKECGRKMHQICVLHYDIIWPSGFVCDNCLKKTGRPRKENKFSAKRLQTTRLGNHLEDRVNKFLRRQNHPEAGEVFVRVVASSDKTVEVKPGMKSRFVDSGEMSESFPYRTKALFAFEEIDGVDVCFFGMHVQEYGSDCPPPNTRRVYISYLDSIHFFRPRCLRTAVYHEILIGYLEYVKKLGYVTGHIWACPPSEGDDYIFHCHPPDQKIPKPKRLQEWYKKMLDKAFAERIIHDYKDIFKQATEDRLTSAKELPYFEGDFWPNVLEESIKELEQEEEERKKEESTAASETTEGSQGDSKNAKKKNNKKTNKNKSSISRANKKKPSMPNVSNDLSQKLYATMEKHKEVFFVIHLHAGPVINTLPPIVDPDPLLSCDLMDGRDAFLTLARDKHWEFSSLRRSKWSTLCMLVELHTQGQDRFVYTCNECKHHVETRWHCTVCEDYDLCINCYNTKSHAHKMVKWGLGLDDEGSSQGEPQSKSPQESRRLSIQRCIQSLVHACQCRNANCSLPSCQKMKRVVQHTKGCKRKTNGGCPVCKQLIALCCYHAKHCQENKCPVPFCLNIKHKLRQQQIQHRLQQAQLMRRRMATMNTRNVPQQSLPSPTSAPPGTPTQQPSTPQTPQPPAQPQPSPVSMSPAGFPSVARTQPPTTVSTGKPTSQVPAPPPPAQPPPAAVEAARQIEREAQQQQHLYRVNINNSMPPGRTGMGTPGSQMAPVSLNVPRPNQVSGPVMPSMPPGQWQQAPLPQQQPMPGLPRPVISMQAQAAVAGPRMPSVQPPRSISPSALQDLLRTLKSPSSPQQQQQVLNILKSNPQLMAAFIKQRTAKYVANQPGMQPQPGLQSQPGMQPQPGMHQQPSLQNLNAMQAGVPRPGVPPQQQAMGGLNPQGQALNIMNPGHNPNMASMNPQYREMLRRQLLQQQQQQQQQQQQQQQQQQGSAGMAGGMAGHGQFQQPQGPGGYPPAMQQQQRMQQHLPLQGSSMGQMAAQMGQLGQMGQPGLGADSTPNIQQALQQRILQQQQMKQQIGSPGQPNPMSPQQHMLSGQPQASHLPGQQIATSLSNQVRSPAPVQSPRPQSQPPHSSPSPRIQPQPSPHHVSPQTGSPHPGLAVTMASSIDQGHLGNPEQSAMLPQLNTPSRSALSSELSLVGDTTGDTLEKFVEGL
EP300, sequence (Q09472 whole entry): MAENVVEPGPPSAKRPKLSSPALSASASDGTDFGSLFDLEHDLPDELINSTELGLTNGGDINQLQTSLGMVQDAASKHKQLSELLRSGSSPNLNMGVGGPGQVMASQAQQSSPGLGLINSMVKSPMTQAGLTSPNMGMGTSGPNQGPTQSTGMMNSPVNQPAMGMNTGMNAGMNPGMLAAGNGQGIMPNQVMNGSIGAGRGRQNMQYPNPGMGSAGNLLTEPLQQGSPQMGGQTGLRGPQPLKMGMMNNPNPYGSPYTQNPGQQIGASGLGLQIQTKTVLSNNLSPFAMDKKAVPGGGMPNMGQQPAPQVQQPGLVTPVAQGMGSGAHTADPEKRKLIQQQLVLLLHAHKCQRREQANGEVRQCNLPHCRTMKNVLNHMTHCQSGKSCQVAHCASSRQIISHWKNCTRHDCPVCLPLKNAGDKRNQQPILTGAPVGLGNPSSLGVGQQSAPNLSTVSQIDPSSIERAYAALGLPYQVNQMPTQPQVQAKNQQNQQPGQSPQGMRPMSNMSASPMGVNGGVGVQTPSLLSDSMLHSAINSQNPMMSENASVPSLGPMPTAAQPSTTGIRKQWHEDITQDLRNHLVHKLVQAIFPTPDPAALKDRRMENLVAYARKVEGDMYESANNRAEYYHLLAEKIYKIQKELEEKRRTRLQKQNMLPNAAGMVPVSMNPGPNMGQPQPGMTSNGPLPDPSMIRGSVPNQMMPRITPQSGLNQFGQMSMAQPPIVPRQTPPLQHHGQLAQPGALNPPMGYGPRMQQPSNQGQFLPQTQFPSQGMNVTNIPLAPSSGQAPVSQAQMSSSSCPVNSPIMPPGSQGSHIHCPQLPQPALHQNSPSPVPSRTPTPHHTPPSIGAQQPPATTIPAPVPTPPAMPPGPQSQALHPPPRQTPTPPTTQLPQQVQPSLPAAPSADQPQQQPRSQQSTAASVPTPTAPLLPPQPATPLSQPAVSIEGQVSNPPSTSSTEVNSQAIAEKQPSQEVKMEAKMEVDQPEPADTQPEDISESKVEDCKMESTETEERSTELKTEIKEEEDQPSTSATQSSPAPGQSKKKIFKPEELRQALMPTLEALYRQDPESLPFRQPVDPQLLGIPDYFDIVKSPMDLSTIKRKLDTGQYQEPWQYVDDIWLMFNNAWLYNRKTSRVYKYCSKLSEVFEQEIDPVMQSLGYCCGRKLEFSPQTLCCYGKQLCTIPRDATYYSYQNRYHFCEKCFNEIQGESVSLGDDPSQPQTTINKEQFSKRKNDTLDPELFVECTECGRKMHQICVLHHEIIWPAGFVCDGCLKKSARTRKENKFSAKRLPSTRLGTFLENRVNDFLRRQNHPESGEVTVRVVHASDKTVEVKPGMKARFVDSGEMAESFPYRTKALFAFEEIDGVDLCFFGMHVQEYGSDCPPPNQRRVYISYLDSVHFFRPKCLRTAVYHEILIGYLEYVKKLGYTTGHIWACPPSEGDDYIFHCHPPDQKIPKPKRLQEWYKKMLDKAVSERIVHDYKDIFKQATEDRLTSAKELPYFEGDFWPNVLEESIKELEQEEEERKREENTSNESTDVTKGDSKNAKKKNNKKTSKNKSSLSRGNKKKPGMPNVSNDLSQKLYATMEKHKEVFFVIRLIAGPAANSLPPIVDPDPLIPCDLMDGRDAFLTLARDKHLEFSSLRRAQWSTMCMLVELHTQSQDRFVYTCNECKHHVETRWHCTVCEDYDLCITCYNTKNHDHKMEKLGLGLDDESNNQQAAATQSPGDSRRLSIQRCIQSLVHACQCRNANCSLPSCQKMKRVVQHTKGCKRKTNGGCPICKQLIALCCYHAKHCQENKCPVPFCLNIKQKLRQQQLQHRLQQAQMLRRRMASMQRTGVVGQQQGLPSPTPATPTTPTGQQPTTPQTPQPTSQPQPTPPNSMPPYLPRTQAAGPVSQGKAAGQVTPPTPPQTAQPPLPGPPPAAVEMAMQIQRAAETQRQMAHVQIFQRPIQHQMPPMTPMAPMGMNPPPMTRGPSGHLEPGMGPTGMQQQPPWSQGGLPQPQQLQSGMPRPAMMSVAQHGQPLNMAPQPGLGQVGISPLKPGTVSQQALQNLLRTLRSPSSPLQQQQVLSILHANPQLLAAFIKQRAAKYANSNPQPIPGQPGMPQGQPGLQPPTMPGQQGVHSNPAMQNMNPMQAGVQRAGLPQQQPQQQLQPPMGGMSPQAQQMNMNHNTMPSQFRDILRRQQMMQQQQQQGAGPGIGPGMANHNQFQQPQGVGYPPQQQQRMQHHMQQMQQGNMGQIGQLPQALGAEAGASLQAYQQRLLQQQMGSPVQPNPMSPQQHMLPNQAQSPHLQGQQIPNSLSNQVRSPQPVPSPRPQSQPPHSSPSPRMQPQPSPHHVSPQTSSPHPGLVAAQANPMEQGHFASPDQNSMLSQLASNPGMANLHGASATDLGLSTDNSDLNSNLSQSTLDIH

Turning to `COc1ccc(C2(C(=O)N3C[C@H](F)[C@@H](O)[C@@H]3C(=O)Nc3ccc4[nH]ncc4n3)CCC(F)(F)CC2)cc1` [Example 38], the IC50 at EP300 worked out at 57 nM; on CREBBP it was 109 nM; with H3K27Ac it was 38 nM. The GI50 with LK2 cells worked out at 117 nM; in the assay with TE-8 cells, 176 nM.

As for `COc1ccc(C2(C(=O)N3C[C@H](F)C[C@@H]3C(=O)Nc3ccc4[nH]ncc4n3)CCOCC2)cc1` [Example 45, (4R)-4-Fluoro-1-{[4-(4-methoxyphenyl)tetrahydro-2H-pyran-4-yl]carbonyl}-N-1H-pyrazolo[4,3-b]pyridin-5-yl-D-prolinamide], the half-inhibitory concentration (IC50) against EP300 is 31 nM; against CREBBP, 128 nM; in the assay on H3K27Ac it was 101 nM. Also, the GI50 in the assay on LK2 cells was determined as 733 nM; with TE-8 cells, 1350 nM.

In the case of `COc1ccc(C2(C(=O)N(C)[C@H](C)C(=O)Nc3ccc4[nH]ncc4n3)CCCCC2)cc1` [Example 46], the half-maximal inhibitory concentration (IC50) turned out to be 24 nM on EP300, 45 nM against CREBBP and 14 nM in the assay with H3K27Ac. The figures for the concentration for 50% growth inhibition (GI50) with LK2 cells and in the assay on TE-8 cells were 147 nM and 145 nM, respectively.

Take `COc1ccc(C(C)(C)C(=O)N2C[C@H](F)C[C@@H]2C(=O)Nc2ccc3[nH]ncc3n2)cc1` [Example 47]: the half-maximal inhibitory concentration (IC50) against EP300 came to 13 nM; at CREBBP it was 59 nM; in the assay with H3K27Ac, 77 nM. Also, the GI50 with LK2 cells was 585 nM; in the assay on TE-8 cells, 1140 nM.

In the case of `O=C(Nc1ccc2[nH]ncc2n1)[C@H]1C[C@@H](F)CN1C(=O)C1(c2ccc(OCF)cc2)CCC(F)(F)CC1` [Example 48], the IC50 against EP300 came out at 14 nM; on CREBBP it was 34 nM; in the assay on H3K27Ac, 25 nM. The results for the GI50 in the assay with LK2 cells and in the assay with TE-8 cells were 105 nM and 135 nM, respectively.

Regarding `O=C(Nc1ccc2[nH]ncc2n1)[C@H]1C[C@@H](F)CN1C(=O)C1(c2ccc(OCF)cc2)CCCC1` [Example 49], the IC50 on EP300 worked out at 13 nM; at CREBBP, 25 nM; in the assay with H3K27Ac, 39 nM. Moreover, the 50% growth inhibitory concentration (GI50) with LK2 cells is 75 nM; with TE-8 cells it was 68.1 nM.

On to `COc1ccc(C2(C(=O)N3C[C@H](F)C[C@@H]3C(=O)Nc3ccc4[nH]ccc4n3)CCCCC2)cc1` [Example 50], for which the IC50 is 20 nM on EP300, 27 nM against CREBBP and 27 nM in the assay on H3K27Ac. Besides, the GI50 in the assay with LK2 cells is 166 nM; in the assay with TE-8 cells, 288 nM.

In the case of `COc1ccc(C2(C(=O)N3C[C@H](F)C[C@@H]3C(=O)Nc3ccc4[nH]ccc4n3)CCC(F)(F)CC2)cc1` [Example 51], the half-inhibitory concentration (IC50) at EP300 came out at 41 nM; against CREBBP it was 54 nM; in the assay with H3K27Ac, 50 nM. The GI50 turned out to be 351 nM in the assay on LK2 cells and 916 nM in the assay on TE-8 cells.

Turning to `COc1ccc(C2(C(=O)N3C[C@H](F)C[C@@H]3C(=O)Nc3ccc4cc[nH]c4n3)CCCCC2)cc1` [Example 52], the results for the IC50 against EP300, at CREBBP and in the assay on H3K27Ac were 21 nM, 51 nM and 28 nM, respectively. The GI50 with LK2 cells came to 254 nM; with TE-8 cells, 439 nM.

`COc1ccc(C2(C(=O)N3CCC[C@@H]3C(=O)Nc3cccc4[nH]ncc34)CCCCCC2)cc1` [Example 54]: the IC50 at EP300 is 126 nM; against CREBBP it was 201 nM; in the assay on H3K27Ac, 920 nM. Further, the 50% growth inhibitory concentration (GI50) in the assay with LK2 cells was 2970 nM; in the assay with TE-8 cells it was 4480 nM.

For `COc1ccc(C2(C(=O)N3C[C@H](F)C[C@@H]3C(=O)Nc3ccc4[nH]ncc4n3)CC(F)(F)C2)cc1` [Example 56, (4R)-1-{[3,3-Difluoro-1-(4-methoxyphenyl)cyclobutyl]carbonyl}-4-fluoro-N-1H-pyrazolo[4,3-b]pyridin-5-yl-D-prolinamide], the concentration for half-maximal inhibition (IC50) at EP300 came to 24 nM; at CREBBP, 64 nM; in the assay with H3K27Ac, 20 nM. Besides, the 50% growth inhibitory concentration (GI50) amounted to 98.8 nM in the assay on LK2 cells and 88.3 nM in the assay on TE-8 cells.

In the case of `COc1ccc(C2(C(=O)N3C[C@H](F)C[C@@H]3C(=O)Nc3ccc4[nH]ncc4n3)CC(C)(C)C2)cc1` [Example 57], the figures for the IC50 on EP300, at CREBBP and in the assay with H3K27Ac were 48 nM, 76 nM and 53 nM, respectively. Moreover, the GI50 was 310 nM with LK2 cells and 473 nM in the assay on TE-8 cells.

As for `CC(C)(C(=O)N1C[C@H](F)C[C@@H]1C(=O)Nc1ccc2[nH]ncc2n1)c1ccc(OC(F)(F)F)cc1` [Example 58], the IC50 stood at 60 nM against EP300, 75 nM against CREBBP and 173 nM in the assay with H3K27Ac. Besides, the figures for the GI50 in the assay with LK2 cells and in the assay with TE-8 cells were 699 nM and 1280 nM, respectively.

Consider `O=C(Nc1ccc2[nH]ncc2n1)[C@H]1C[C@@H](F)CN1C(=O)C1(c2ccc(C(=O)C(F)(F)F)cc2)CCCCC1` [Example 61, (4R)-4-Fluoro-N-1H-pyrazolo[4,3-b]pyridin-5-yl-1-({1-[4-(trifluoroacetyl)phenyl]cyclohexyl}carbonyl)-D-prolinamide], for which the 50% inhibitory concentration (IC50) against EP300 worked out at 56 nM; on CREBBP it was 95 nM; in the assay with H3K27Ac, 21 nM. Moreover, the figures for the 50% growth inhibitory concentration (GI50) in the assay on LK2 cells and in the assay with TE-8 cells were 149 nM and 216 nM, respectively.

On to `COc1c(F)cc(C2(C(=O)N3C[C@H](F)C[C@@H]3C(=O)Nc3ccc4[nH]ncc4n3)CCC(F)(F)CC2)cc1F` [Example 62], for which the IC50 came out at 76 nM on EP300, 87 nM at CREBBP and 142 nM in the assay with H3K27Ac. The GI50 in the assay on LK2 cells turned out to be 489 nM; in the assay on TE-8 cells, 880 nM.

On to `COc1ccc(C2(C(=O)N3C[C@H](F)C[C@@H]3C(=O)Nc3ccc4[nH]ncc4n3)CCCCC2)cn1` [Example 63], for which the half-inhibitory concentration (IC50) against EP300 amounted to 34 nM; on CREBBP it was 43 nM; in the assay on H3K27Ac it was 15 nM. In addition, the concentration for 50% growth inhibition (GI50) with LK2 cells came to 86 nM; in the assay on TE-8 cells, 117 nM.

Regarding `COc1ncc(C2(C(=O)N3C[C@H](F)C[C@@H]3C(=O)Nc3ccc4[nH]ncc4n3)CCCC2)cn1` [Example 64], the 50% inhibitory concentration (IC50) on EP300 stood at 56 nM; against CREBBP, 121 nM; in the assay with H3K27Ac it was 188 nM. The results for the GI50 in the assay with LK2 cells and with TE-8 cells were 643 nM and 1270 nM, respectively.

Take `COc1ccc(C2(C(=O)N3CS(=O)(=O)C[C@@H]3C(=O)Nc3ccc4[nH]ccc4n3)CCCC2)cc1` [Example 65, (4S)-3-{[1-(4-Methoxyphenyl)cyclopentyl]carbonyl}-N-(1H-pyrrolo[3,2-b]pyridin-5-yl)-1,3-thiazolidine-4-carboxamide 1,1-dioxide]: the IC50 turned out to be 18 nM against EP300, 37 nM against CREBBP and 9 nM in the assay on H3K27Ac. Also, the figures for the GI50 with LK2 cells and in the assay with TE-8 cells were 79.2 nM and 151 nM, respectively.
